Reference: the NIST ThermoML archive (doi:10.1016/j.jct.2011.05.033)
Several values for one entry are separate records, joined by “and”; a condition that tells them apart may be missing. Equal entries are not always repeated.

Assays:
[1] = excess molar enthalpy (molar enthalpy of mixing); xn = mol fraction of the nth substance listed; details: 298.15 K, 101 kPa, Liquid, Isothermal Titration Calorimeter
[2] = xn = mol fraction of the nth substance listed; details: 298.15 K, 101 kPa, Liquid, Vibrating tube method

CCCCCC[n+]1ccn(C)c1.O=S(=O)([N-]S(=O)(=O)C(F)(F)F)C(F)(F)F + CCCCCCO
[1]
Details	excess molar enthalpy [kcal/mol]
x2 = 0.0045	0.00956
x2 = 0.0089	0.0189
x2 = 0.0132	0.0282
x2 = 0.0176	0.037
x2 = 0.0219	0.0459
x2 = 0.0261	0.0545
x2 = 0.0304	0.0629
x2 = 0.0345	0.071
x2 = 0.0387	0.0791
x2 = 0.0428	0.0868
x2 = 0.0469	0.0946
x2 = 0.0509	0.102
x2 = 0.0549	0.109
x2 = 0.0589	0.117
x2 = 0.0629	0.124

CCn1cc[n+](C)c1.O=S(=O)([N-]S(=O)(=O)C(F)(F)F)C(F)(F)F + CCCCCCO
[1]
Details	excess molar enthalpy [kcal/mol]
x2 = 0.0036	0.00621
x2 = 0.0072	0.0117
x2 = 0.0107	0.0165
x2 = 0.0142	0.0206
x2 = 0.0177	0.0239
x2 = 0.0212	0.0265
x2 = 0.0246	0.0287

CCCCCC[n+]1ccn(C)c1.O=S(=O)([N-]S(=O)(=O)C(F)(F)F)C(F)(F)F + CCCCO
[1]
Details	excess molar enthalpy [kcal/mol]
x2 = 0.0064	0.0141
x2 = 0.0127	0.0277
x2 = 0.019	0.0411
x2 = 0.0252	0.0543
x2 = 0.0313	0.0672
x2 = 0.0373	0.0796
x2 = 0.0432	0.092
x2 = 0.0491	0.104
x2 = 0.0549	0.116
x2 = 0.0606	0.127
x2 = 0.0663	0.138
x2 = 0.0719	0.149
x2 = 0.0774	0.16
x2 = 0.0829	0.171
x2 = 0.0883	0.181

CCn1cc[n+](C)c1.O=S(=O)([N-]S(=O)(=O)C(F)(F)F)C(F)(F)F + CCCCO
[1]
Details	excess molar enthalpy [kcal/mol]
x2 = 0.0051	0.0103
x2 = 0.0102	0.0203
x2 = 0.0152	0.0304
x2 = 0.0201	0.0399
x2 = 0.025	0.0495
x2 = 0.0299	0.0586
x2 = 0.0347	0.0676
x2 = 0.0395	0.0765
x2 = 0.0442	0.0851
x2 = 0.0488	0.0935
x2 = 0.0535	0.102
x2 = 0.0581	0.11
x2 = 0.0626	0.118
x2 = 0.0671	0.125
x2 = 0.0715	0.133

CCCCCC[n+]1ccn(C)c1.O=S(=O)([N-]S(=O)(=O)C(F)(F)F)C(F)(F)F + CCO
[1]
Details	excess molar enthalpy [kcal/mol]
x2 = 0.0095	0.0195
x2 = 0.0189	0.0383
x2 = 0.0281	0.0564
x2 = 0.0371	0.0739
x2 = 0.046	0.0907
x2 = 0.0547	0.107
x2 = 0.0632	0.123
x2 = 0.0716	0.138
x2 = 0.0798	0.152
x2 = 0.0879	0.166
x2 = 0.0959	0.18
x2 = 0.1037	0.193
x2 = 0.1114	0.206
x2 = 0.1189	0.218
x2 = 0.1263	0.23

CCn1cc[n+](C)c1.O=S(=O)([N-]S(=O)(=O)C(F)(F)F)C(F)(F)F + CCO
[1]
Details	excess molar enthalpy [kcal/mol]
x2 = 0.0083	0.0143
x2 = 0.0165	0.0282
x2 = 0.0245	0.0416
x2 = 0.0324	0.0545
x2 = 0.0402	0.0669
x2 = 0.0479	0.0791
x2 = 0.0554	0.0908
x2 = 0.0628	0.102
x2 = 0.0702	0.113
x2 = 0.0773	0.124
x2 = 0.0844	0.134
x2 = 0.0914	0.144
x2 = 0.0983	0.154
x2 = 0.105	0.163
x2 = 0.1117	0.172

CCCCCCCCCCn1cc[n+](C)c1.O=S(=O)([N-]S(=O)(=O)C(F)(F)F)C(F)(F)F + CO
Details	excess molar enthalpy [kcal/mol]	mass density [kg/m3]
[1], x2 = 0.0171	0.0146	–
[1], x2 = 0.0336	0.028	–
[1], x2 = 0.0496	0.0402	–
[1], x2 = 0.0651	0.0511	–
[1], x2 = 0.08	0.0614	–
[1], x2 = 0.0945	0.0705	–
[1], x2 = 0.1086	0.0789	–
[1], x2 = 0.1222	0.0863	–
[1], x2 = 0.1354	0.0932	–
[1], x2 = 0.1482	0.0994	–
[1], x2 = 0.1606	0.105	–
[1], x2 = 0.1727	0.11	–
[1], x2 = 0.1844	0.115	–
[1], x2 = 0.1958	0.119	–
[1], x2 = 0.2069	0.123	–
[2], x1 = 0.0001	–	789.6
[2], x1 = 0.0233	–	883.6
[2], x1 = 0.0513	–	963.28
[2], x1 = 0.1054	–	1054.89
[2], x1 = 0.1417	–	1094.51
[2], x1 = 0.1679	–	1115.13
[2], x1 = 0.2161	–	1147.23
[2], x1 = 0.2452	–	1163.25
[2], x1 = 0.297	–	1183.51
[2], x1 = 0.4686	–	1228.19
[2], x1 = 0.5186	–	1236.02
[2], x1 = 0.762	–	1263.65
[2], x1 = 0.7868	–	1264.97
[2], x1 = 0.8756	–	1271.49
[2], x1 = 0.9503	–	1275.73
[2], x1 = 1	–	1278.57

CCCCCCCCn1cc[n+](C)c1.O=S(=O)([N-]S(=O)(=O)C(F)(F)F)C(F)(F)F + CO
Details	excess molar enthalpy [kcal/mol]	mass density
[1], x2 = 0.0153	0.0206	–
[1], x2 = 0.0302	0.0402	–
[1], x2 = 0.0446	0.0586	–
[1], x2 = 0.0586	0.076	–
[1], x2 = 0.0721	0.0923	–
[1], x2 = 0.0853	0.108	–
[1], x2 = 0.0982	0.122	–
[1], x2 = 0.1106	0.136	–
[1], x2 = 0.1228	0.149	–
[1], x2 = 0.1346	0.162	–
[1], x2 = 0.1461	0.173	–
[1], x2 = 0.1573	0.184	–
[1], x2 = 0.1682	0.195	–
[1], x2 = 0.1788	0.205	–
[1], x2 = 0.1892	0.214	–
[2], x1 = 0.0001	–	791.05 kg/m3
[2], x1 = 0.0218	–	882.47 kg/m3
[2], x1 = 0.0599	–	986.86 kg/m3
[2], x1 = 0.0837	–	1031.65 kg/m3
[2], x1 = 0.1926	–	1153.62 kg/m3
[2], x1 = 0.2708	–	1198.9 kg/m3
[2], x1 = 0.3019	–	1213.08 kg/m3
[2], x1 = 0.5004	–	1267.25 kg/m3
[2], x1 = 0.8201	–	1308.01 kg/m3
[2], x1 = 0.8355	–	1308.78 kg/m3
[2], x1 = 0.989	–	1319.5 kg/m3
[2], x1 = 1	–	1320.55 kg/m3 and 1320.38 kg/m3

CCCCCC[n+]1ccn(C)c1.O=S(=O)([N-]S(=O)(=O)C(F)(F)F)C(F)(F)F + CO
Details	excess molar enthalpy [kcal/mol]	mass density
[1], x2 = 0.0147	0.0257	–
[1], x2 = 0.029	0.0503	–
[1], x2 = 0.0429	0.0738	–
[1], x2 = 0.0564	0.0962	–
[1], x2 = 0.0695	0.118	–
[1], x2 = 0.0823	0.138	–
[1], x2 = 0.0947	0.158	–
[1], x2 = 0.1068	0.176	–
[1], x2 = 0.1186	0.194	–
[1], x2 = 0.13	0.211	–
[1], x2 = 0.1412	0.228	–
[1], x2 = 0.1521	0.243	–
[1], x2 = 0.1627	0.258	–
[1], x2 = 0.1731	0.272	–
[1], x2 = 0.1832	0.286	–
[2], x1 = 0.0001	–	792.92 kg/m3
[2], x1 = 0.0002	–	792.66 kg/m3
[2], x1 = 0.0003	–	792.92 kg/m3
[2], x1 = 0.0711	–	1017.33 kg/m3
[2], x1 = 0.0868	–	1047.67 kg/m3
[2], x1 = 0.1772	–	1163.23 kg/m3
[2], x1 = 0.2176	–	1195.97 kg/m3
[2], x1 = 0.2695	–	1228.24 kg/m3
[2], x1 = 0.4991	–	1308.41 kg/m3
[2], x1 = 0.5488	–	1318.7 kg/m3
[2], x1 = 0.5851	–	1325.38 kg/m3
[2], x1 = 1	–	1371.91 kg/m3 and 1371.79 kg/m3

CCCC[n+]1ccn(C)c1.O=S(=O)([N-]S(=O)(=O)C(F)(F)F)C(F)(F)F + CO
Details	excess molar enthalpy [kcal/mol]	mass density [kg/m3]
[1], x2 = 0.0131	0.0218	–
[1], x2 = 0.0258	0.0423	–
[1], x2 = 0.0383	0.0617	–
[1], x2 = 0.0504	0.08	–
[1], x2 = 0.0622	0.0973	–
[1], x2 = 0.0737	0.114	–
[1], x2 = 0.0849	0.129	–
[1], x2 = 0.0959	0.144	–
[1], x2 = 0.1066	0.157	–
[1], x2 = 0.1171	0.171	–
[1], x2 = 0.1273	0.183	–
[1], x2 = 0.1373	0.195	–
[1], x2 = 0.147	0.206	–
[1], x2 = 0.1566	0.216	–
[1], x2 = 0.1659	0.226	–
[2], x1 = 0.0844	–	1054.48
[2], x1 = 0.1155	–	1109.91
[2], x1 = 0.1594	–	1168.72
[2], x1 = 0.1722	–	1182.69
[2], x1 = 0.264	–	1259.96
[2], x1 = 0.6327	–	1388.71
[2], x1 = 0.8245	–	1418.09
[2], x1 = 1	–	1436.29

CCn1cc[n+](C)c1.O=S(=O)([N-]S(=O)(=O)C(F)(F)F)C(F)(F)F + CO
Details	excess molar enthalpy [kcal/mol]	mass density
[1], x2 = 0.0118	0.0158	–
[1], x2 = 0.0233	0.0311	–
[1], x2 = 0.0346	0.0454	–
[1], x2 = 0.0456	0.0593	–
[1], x2 = 0.0563	0.0722	–
[1], x2 = 0.0668	0.0848	–
[1], x2 = 0.0771	0.0966	–
[1], x2 = 0.0872	0.108	–
[1], x2 = 0.097	0.119	–
[1], x2 = 0.1067	0.129	–
[1], x2 = 0.1161	0.139	–
[1], x2 = 0.1253	0.148	–
[1], x2 = 0.1343	0.157	–
[1], x2 = 0.1432	0.165	–
[1], x2 = 0.1519	0.173	–
[2], x1 = 0.0001	–	792.63 kg/m3
[2], x1 = 0.0732	–	1040.6 kg/m3
[2], x1 = 0.1082	–	1115.5 kg/m3
[2], x1 = 0.1385	–	1165.23 kg/m3
[2], x1 = 0.2145	–	1258.12 kg/m3
[2], x1 = 0.2485	–	1289.7 kg/m3
[2], x1 = 0.2968	–	1325.28 kg/m3
[2], x1 = 0.3388	–	1351.25 kg/m3
[2], x1 = 0.6002	–	1451 kg/m3
[2], x1 = 0.6355	–	1459.63 kg/m3
[2], x1 = 0.7925	–	1487.15 kg/m3
[2], x1 = 0.837	–	1497.28 kg/m3
[2], x1 = 1	–	1518.63 kg/m3 and 1518.58 kg/m3

CO [methanol] + CCCCCCCCCCn1cc[n+](C)c1.O=S(=O)([N-]S(=O)(=O)C(F)(F)F)C(F)(F)F
Details	mass density [kg/m3]
[2], x2 = 0	793.17

CO [methanol] + CCCCCCCCn1cc[n+](C)c1.O=S(=O)([N-]S(=O)(=O)C(F)(F)F)C(F)(F)F
Details	mass density [kg/m3]
[2], x2 = 0	792.64

CO [methanol] + CCCCCC[n+]1ccn(C)c1.O=S(=O)([N-]S(=O)(=O)C(F)(F)F)C(F)(F)F
Details	mass density [kg/m3]
[2], x2 = 0	792.66

CO [methanol] + CCCC[n+]1ccn(C)c1.O=S(=O)([N-]S(=O)(=O)C(F)(F)F)C(F)(F)F
Details	mass density [kg/m3]
[2], x2 = 0	792.92

CO [methanol] + CCn1cc[n+](C)c1.O=S(=O)([N-]S(=O)(=O)C(F)(F)F)C(F)(F)F
Details	mass density [kg/m3]
[2], x2 = 0	794.62
